This note sets out measurements from patent publication US11291674B2 (CALITHERA BIOSCIENCES, INC., priority 2016, dated 2022).

For the experiment, the system named is cancer patient granulocyte-mediated suppression of T cell proliferation. Description: T cell proliferation in media conditioned by granulocytes of a head and neck cancer patient. In kind it is cell-based, human. As to the method:
T cell/myeloid cell co-culture assays. […] Granulocytes were incubated for 48 h at 37° C., during which time they spontaneously activate as determined by surface expression of CD66b and scatter properties. T cells isolated from the same donor using a pan-T cell isolation kit (Stemcell Technologies) were loaded with CFSE and plated with immobilized anti-CD3 and soluble anti-CD28 in the presence of the aged granulocytes. The cells were co-cultured at several ratios of granulocytes to T cells as indicated or at a fixed ratio of 4 T cells to 1 granulocyte. Co-cultures were incubated for 3-4 days, at which time media were analyzed for L-arginine and L-ornithine by mass spectrometry and T cell proliferation was determined by flow cytometry. Granulocytic MDSC (G-MDSC) or granulocytes from cancer patients were isolated from whole blood purchased from Conversant Biologics. G-MDSCs were purified from the PBMC layer of a Ficoll gradient by positive selection for CD66b^+ cells. Granulocytes were purified from the RBC layer of a Ficoll gradient using Hetasep (Stemcell Technologies). G-MDSC or granulocytes were incubated in co-culture media containing 100 μM L-arginine for 48 h, at which time the cells were removed and the G-MDSC- or granulocyte-conditioned media were used for incubating healthy donor CFSE-loaded T cells on immobilized anti-CD3/soluble anti-CD28 for 3-4 days. Cytokines were quantified in the media from T cell co-culture assays using the Cytometric Bead Array kit according to the manufacturer's instructions (BD Biosciences).

For the compound `C[C@H](N)C(=O)N1C[C@H](CCCB(O)O)[C@](N)(C(=O)O)C1` [arginase inhibitor], for the setting “T cells in cancer patient granulocyte-conditioned media”, the “Secretion of interferon-γ and granzyme-B into the media” value is given as “restored secretion”. Moreover, the “Arginine depletion of the media” value (granulocytes of a head and neck cancer patient) is “arginine depletion was blocked”. In addition, the “T cell proliferation restored, of control levels” value (media conditioned by granulocytes of a head and neck cancer patient) is 79%.
